Experimental data published in patent US20220324835A1 (Nurix Therapeutics, Inc., priority 2018, published 2022).
pIC50: −log10 of the molar value.

Legend:
[1] = tested on: T-cell; assay: CD25 cell surface staining on T-cells stimulated with anti-CD3 antibody alone (Biological Example 2); assay type: cell-based, human; conditions: T-cell, fold change over baseline, primary human total T-cells, read-out: CD25 staining Anti-CD3 stimulation; for fold induction at 1 µM: 1 μM Cbl-b inhibitor; for fold induction at 8 µM: 8 μM Cbl-b inhibitor
[2] = biological target: T1, Cbl-b (Homo sapiens, UniProt Q13191); assay: Cbl-b activity assay (Cbl-b inhibition assay), TR-FRET of Cbl-b interaction with UbcH5B-Ub; assay type: biochemical; conditions: assay buffer with 100 mM NaCl, 60 nM Src kinase; read-out: Cbl-b activity IC50
How it was run: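 TR-FRET readout of Cbl-b binding to Bodipy-fluorescein N-terminally labeled Ub conjugated to UbcH5B C85K, measured with compound present. After compound incubation, 60 nM Src kinase with 1 mM ATP and 5 mM MgCl2 (final) was added for 1.5 h, then a further 1 h incubation; asterisked values used 50 mM NaCl buffer and 30 nM Src.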

[3] = biological target: T1, Cbl-b; assay: Cbl-b inhibition assay (Cbl-b activity assay, FRET, Biological Example 1; 100 mM NaCl, 60 nM Src kinase); assay type: biochemical; conditions: upper bound stated in text lists; read-out: IC50 values in the Cbl-b inhibition assay of Biological Example 1
How it was run: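 Inhibitor activity is measured as reduced terbium-to-fluorescein FRET between streptavidin-terbium on biotinylated Cbl-b and Bodipy-fluorescein ubiquitin carried by an irreversible UbcH5B-Ub conjugate, binding of which depends on Src phosphorylation of Cbl-b.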

T1 sequence (Q13191 36-427): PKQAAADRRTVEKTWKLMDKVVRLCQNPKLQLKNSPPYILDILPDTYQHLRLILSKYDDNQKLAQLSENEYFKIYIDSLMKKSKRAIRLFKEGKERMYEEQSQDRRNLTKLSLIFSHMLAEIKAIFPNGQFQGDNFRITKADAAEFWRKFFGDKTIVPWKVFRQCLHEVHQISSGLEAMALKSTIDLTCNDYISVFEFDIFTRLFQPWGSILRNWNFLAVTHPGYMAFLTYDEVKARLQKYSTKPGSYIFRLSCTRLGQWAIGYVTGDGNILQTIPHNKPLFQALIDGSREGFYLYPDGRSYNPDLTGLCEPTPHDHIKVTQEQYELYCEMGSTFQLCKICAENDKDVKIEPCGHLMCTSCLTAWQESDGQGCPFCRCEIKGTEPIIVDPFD

SMILES | fold induction at 1 µM [1] | fold induction at 8 µM [1] | pIC50 [2] | pIC50 [3]
C[C@H](Cc1nncn1C)c1cccc(NC(=O)c2cncc(C(F)(F)F)n2)c1 [Compound 189, (R)-N-(3-(1-(4-methyl-4H-1,2,4-triazol-3-yl)propan-2-yl)phenyl)-6-(trifluoromethyl)pyrazine-2-carboxamide] | 0.601 to 0.8 | > 1 | 6.52 to 7.00 | ≥ 6.30
C[C@H](Cc1nncn1C)c1cccc(NC(=O)c2cc(C3(O)COC3)cc(C(F)(F)F)n2)c1 [Compound 190, (R)-4-(3-hydroxyoxetan-3-yl)-N-(3-(1-(4-methyl-4H-1,2,4-triazol-3-yl)propan-2-yl)phenyl)-6-(trifluoromethyl)picolinamide] | 0.601 to 0.8 | > 1 | 6.52 to 7.00 | ≥ 6.30
C[C@H](Cc1nncn1C)c1cccc(NC(=O)c2cc(S(C)(=O)=O)cc(C3CC3)n2)c1 [Compound 198, 6-cyclopropyl-N-[3-[(1R)-1-methyl-2-(4-methyl-1,2,4-triazol-3-yl)ethyl]phenyl]-4-methylsulfonyl-pyridine-2-carboxamide] | 0.801 to 1 | > 1 | 6.52 to 7.00 | ≥ 6.30
C[C@H](Cc1nncn1C)c1cccc(NC(=O)c2cc(S(N)(=O)=O)cc(C(F)(F)F)n2)c1 [Compound 200, (R)-N-(3-(1-(4-methyl-4H-1,2,4-triazol-3-yl)propan-2-yl)phenyl)-4-sulfamoyl-6-(trifluoromethyl)picolinamide] | 0.801 to 1 | > 1 | 6.52 to 7.00 | ≥ 6.30
CNS(=O)(=O)c1cc(C(=O)Nc2cccc([C@H](C)Cc3nncn3C)c2)nc(C(F)(F)F)c1 [Compound 201, (R)-N-(3-(1-(4-methyl-4H-1,2,4-triazol-3-yl)propan-2-yl)phenyl)-4-(N-methylsulfamoyl)-6-(trifluoromethyl)picolinamide] | 0.801 to 1 | > 1 | 6.52 to 7.00 | ≥ 6.30
C[C@H](Cc1nncn1C)c1cccc(NC(=O)c2cc(O[C@H]3CC[C@@H](O)C3)ccn2)c1 [Compound 206, 4-((1S,3R)-3-hydroxycyclopentyloxy)-N-(3-((R)-1-(4-methyl-4H-1,2,4-triazol-3-yl)propan-2-yl)phenyl)picolinamide] | 0.801 to 1 | 0.801 to 1 | 6.00 to 6.52 | ≥ 6.00
Cc1ccc(C(=O)Nc2cccc([C@H](C)Cc3nnc[nH]3)c2)nc1C1CC1 [Compound 212, (R)-N-(3-(1-(4H-1,2,4-triazol-3-yl)propan-2-yl)phenyl)-6-cyclopropyl-5-methylpicolinamide] | < 0.6 | < 0.6 | 6.00 to 6.52 | ≥ 6.30
Cc1conc1C[C@@H](C)c1cccc(NC(=O)c2ccnc(C(F)(F)F)n2)c1 [Compound 213a, (R)-N-(3-(1-(4-methylisoxazol-3-yl)propan-2-yl)phenyl)-2-(trifluoromethyl)pyrimidine-4-carboxamide] | 0.801 to 1 | > 1 | 6.52 to 7.00 | ≥ 6.30
C[C@H](Cc1nncn1C)c1cccc(NC(=O)c2cc(C(=O)N3CC[C@](C)(O)C3)ccn2)c1 [Compound 222, 4-((S)-3-hydroxy-3-methylpyrrolidine-1-carbonyl)-N-(3-((R)-1-(4-methyl-4H-1,2,4-triazol-3-yl)propan-2-yl)phenyl)picolinamide] | < 0.6 | < 0.6 | 6.00 to 6.52 | ≥ 6.00
C[C@H](Cc1nncn1C)c1cccc(NC(=O)c2cc(C(=O)N3C[C@@H](O)C[C@H]3C)ccn2)c1 [Compound 224, 4-((2R,4S)-4-hydroxy-2-methylpyrrolidine-1-carbonyl)-N-(3-((R)-1-(4-methyl-4H-1,2,4-triazol-3-yl)propan-2-yl)phenyl)picolinamide] | < 0.6 | < 0.6 | 6.52 to 7.00 | ≥ 6.30
C[C@H](Cc1nncn1C)c1cccc(NC(=O)c2cc(C(=O)N3C[C@@H](O)[C@H](F)C3)ccn2)c1 [Compound 240, 4-((3R,4R)-3-fluoro-4-hydroxypyrrolidine-1-carbonyl)-N-(3-((K)-1-(4-methyl-4H-1,2,4-triazol-3-yl)propan-2-yl)phenyl)picolinamide] | 0.601 to 0.8 | 0.801 to 1 | 6.52 to 7.00 | ≥ 6.30
C[C@H](Cc1nncn1C)c1cccc(NC(=O)c2cc(C(=O)N3CC(O)C(F)(F)C3)ccn2)c1 (stereo partly drawn) [Compound 243, 4-(3,3-difluoro-4-hydroxypyrrolidine-1-carbonyl)-N-[3-[(2R)-1-(4-methyl-4H-1,2,4-triazol-3-yl)propan-2-yl]phenyl]pyridine-2-carboxamide] | 0.601 to 0.8 | 0.801 to 1 | 6.00 to 6.52 | ≥ 6.30
CCn1cnnc1C[C@@H](C)c1cccc(NC(=O)c2cc(C(=O)N3C[C@@H](O)C[C@H]3C)ccn2)c1 [Compound 251, N-(3-((R)-1-(4-ethyl-4H-1,2,4-triazol-3-yl)propan-2-yl)phenyl)-4-((2R,4S)-4-hydroxy-2-methylpyrrolidine-1-carbonyl)picolinamide] | 0.601 to 0.8 | 0.601 to 0.8 | 6.00 to 6.52 | ≥ 6.00
C[C@H](Cc1nncn1C)c1cccc(N2Cc3c(Br)cccc3C2=O)c1 [Compound 256, (R)-4-bromo-2-(3-(1-(4-methyl-4H-1,2,4-triazol-3-yl)propan-2-yl)phenyl)isoindolin-1-one] | 0.801 to 1 | 0.801 to 1 | 6.52 to 7.00 | ≥ 6.30
C[C@H](Cc1nncn1C)c1cccc(N2Cc3c(ccnc3C3CCC3)C2=O)c1 [Compound 258, (R)-4-cyclobutyl-2-(3-(1-(4-methyl-4H-1,2,4-triazol-3-yl)propan-2-yl)phenyl)-2,3-dihydropyrrolo[3,4-c]pyridin-1-one] | > 1 | > 1 | 6.52 to 7.00 | ≥ 6.30
C[C@H](Cc1nnc[nH]1)c1cccc(N2Cc3c(cccc3C(F)(F)F)C2=O)c1 [Compound 262, (R)-2-(3-(1-(4H-1,2,4-triazol-3-yl)propan-2-yl)phenyl)-4-(trifluoromethyl)isoindolin-1-one] | < 0.6 | < 0.6 | 6.00 to 6.52 | ≥ 6.30
C[C@H](Cc1nncn1C1CC1)c1cccc(N2Cc3c(cccc3C(F)(F)F)C2=O)c1 [Compound 265, (R)-2-(3-(1-(4-cyclopropyl-4H-1,2,4-triazol-3-yl)propan-2-yl)phenyl)-4-(trifluoromethyl)isoindolin-1-one] | 0.601 to 0.8 | 0.801 to 1 | 6.00 to 6.52 | ≥ 6.00
Cc1[nH]cnc1CC(C)c1cccc(N2Cc3c(cccc3C(F)(F)F)C2=O)c1 (stereo not drawn) [Compound 272, 2-[3-[1-(5-methyl-1H-imidazol-4-yl)propan-2-yl]phenyl]-4-(trifluoromethyl)isoindolin-1-one] | < 0.6 | < 0.6 | 6.00 to 6.52 | ≥ 6.30
